# According to PubChem BioAssay AID2060498 (Molecular Pharmacology Branch, DTP, NCI, 2025):
# Test system: 171881-019-R-J1-PDC tumor spheroids, viability
# Experiment: Anticancer human tumor 171881-019-R-J1-PDC patient-derived invasive breast carcinoma cell line growth inhibition [GQUAD]
# Conditions: spheroids with HUVEC and MSC; for IC50: curve of first compound; for viability, T/C: stronger effect = lower value
# Outline: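 Tumor cells were grown as complex spheroids with HUVEC endothelial cells and mesenchymal stem cells as stroma. G-quadruplex stabilizers were combined with targeted agents over half-log dilutions from near the clinical Cmax, or from 10 microM.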
# [1] = second compound 0.0316 µM, first compound 0.000999 µM
# [2] = second compound 0.0316 µM, first compound 0.00316 µM
# [3] = second compound 0.0316 µM, first compound 0.00999 µM
# [4] = second compound 0.0316 µM, first compound 0.0316 µM
# [5] = second compound 0.0316 µM, first compound 0.0999 µM
# [6] = second compound 0.0316 µM, first compound 0.316 µM
# [7] = second compound 0.1 µM, first compound 0.000999 µM
# [8] = second compound 0.1 µM, first compound 0.00316 µM
# [9] = second compound 0.1 µM, first compound 0.00999 µM
# [10] = second compound 0.1 µM, first compound 0.0316 µM
# [11] = second compound 0.1 µM, first compound 0.0999 µM
# [12] = second compound 0.1 µM, first compound 0.316 µM
# [13] = second compound 0.316 µM, first compound 0.000999 µM
# [14] = second compound 0.316 µM, first compound 0.00316 µM
# [15] = second compound 0.316 µM, first compound 0.00999 µM
# [16] = second compound 0.316 µM, first compound 0.0316 µM
# [17] = second compound 0.316 µM, first compound 0.0999 µM
# [18] = second compound 0.316 µM, first compound 0.316 µM
# [19] = second compound 1 µM, first compound 0.000999 µM
# [20] = second compound 1 µM, first compound 0.00316 µM
# [21] = second compound 1 µM, first compound 0.00999 µM
# [22] = second compound 1 µM, first compound 0.0316 µM
# [23] = second compound 1 µM, first compound 0.0999 µM
# [24] = second compound 1 µM, first compound 0.316 µM
# [25] = second compound 3.16 µM, first compound 0.000999 µM
# [26] = second compound 3.16 µM, first compound 0.00316 µM
# [27] = second compound 3.16 µM, first compound 0.00999 µM
# [28] = second compound 3.16 µM, first compound 0.0316 µM
# [29] = second compound 3.16 µM, first compound 0.0999 µM
# [30] = second compound 3.16 µM, first compound 0.316 µM
# [31] = second compound 10 µM, first compound 0.000999 µM
# [32] = second compound 10 µM, first compound 0.00316 µM
# [33] = second compound 10 µM, first compound 0.00999 µM
# [34] = second compound 10 µM, first compound 0.0316 µM
# [35] = second compound 10 µM, first compound 0.0999 µM
# [36] = second compound 10 µM, first compound 0.316 µM
# 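Further: spheroids exposed to compounds for 7 days.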
# 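Wherever viability, T/C is given: 100% = DMSO vehicle control viability.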
smiles,measurement,setting,value
CC[C@@]1(O)C(=O)OCc2c1cc1n(c2=O)Cc2cc3c(CN(C)C)c(O)ccc3nc2-1 + Cc1[nH]c2ccc(F)cc2c1-c1nc2c3cccnc3c3ncccc3c2[nH]1,IC50,second compound 0.0316 µM,96.1 nM
same,IC50,second compound 0.1 µM,122 nM
same,IC50,second compound 0.316 µM,142 nM
same,IC50,second compound 1 µM,119 nM
same,IC50,second compound 3.16 µM,< 0.999 nM
same,IC50,second compound 10 µM,< 0.999 nM
same,"viability, T/C",[1],97%
same,"viability, T/C",[2],86.9%
same,"viability, T/C",[3],97.9%
same,"viability, T/C",[4],87.1%
same,"viability, T/C",[5],48.8%
same,"viability, T/C",[6],37.8%
same,"viability, T/C",[7],108%
same,"viability, T/C",[8],99.1%
same,"viability, T/C",[9],93.1%
same,"viability, T/C",[10],87.1%
same,"viability, T/C",[11],50.8%
same,"viability, T/C",[12],39.7%
same,"viability, T/C",[13],101%
same,"viability, T/C",[14],104%
same,"viability, T/C",[15],90.5%
same,"viability, T/C",[16],82.8%
same,"viability, T/C",[17],53.9%
same,"viability, T/C",[18],38.1%
same,"viability, T/C",[19],87.6%
same,"viability, T/C",[20],68%
same,"viability, T/C",[21],86%
same,"viability, T/C",[22],70.3%
same,"viability, T/C",[23],52.8%
same,"viability, T/C",[24],37.7%
same,"viability, T/C",[25],21.7%
same,"viability, T/C",[26],17.7%
same,"viability, T/C",[27],22.7%
same,"viability, T/C",[28],24.3%
same,"viability, T/C",[29],22.9%
same,"viability, T/C",[30],16.7%
same,"viability, T/C",[31],46.2%
same,"viability, T/C",[32],41.7%
same,"viability, T/C",[33],45.2%
same,"viability, T/C",[34],38.4%
same,"viability, T/C",[35],37.6%
same,"viability, T/C",[36],20.7%
CCc1c2c(nc3ccc(O)cc13)-c1cc3c(c(=O)n1C2)COC(=O)[C@]3(O)CC + Cc1[nH]c2ccc(F)cc2c1-c1nc2c3cccnc3c3ncccc3c2[nH]1,IC50,second compound 0.0316 µM,2.72 nM
same,IC50,second compound 0.1 µM,2.74 nM
same,IC50,second compound 0.316 µM,2.61 nM
same,IC50,second compound 1 µM,2.24 nM
same,IC50,second compound 3.16 µM,< 0.999 nM
same,IC50,second compound 10 µM,< 0.999 nM
same,"viability, T/C",[1],80.3%
same,"viability, T/C",[2],42.4%
same,"viability, T/C",[3],35.7%
same,"viability, T/C",[4],33.1%
same,"viability, T/C",[5],25.8%
same,"viability, T/C",[6],23.3%
same,"viability, T/C",[7],78.6%
same,"viability, T/C",[8],43.2%
same,"viability, T/C",[9],35.6%
same,"viability, T/C",[10],33.8%
same,"viability, T/C",[11],28.5%
same,"viability, T/C",[12],22.6%
same,"viability, T/C",[13],74.4%
same,"viability, T/C",[14],42.9%
same,"viability, T/C",[15],34.8%
same,"viability, T/C",[16],33.4%
same,"viability, T/C",[17],27%
same,"viability, T/C",[18],23.4%
same,"viability, T/C",[19],66.6%
same,"viability, T/C",[20],39.5%
same,"viability, T/C",[21],34.4%
same,"viability, T/C",[22],27.8%
same,"viability, T/C",[23],23.6%
same,"viability, T/C",[24],18.7%
same,"viability, T/C",[25],19.9%
same,"viability, T/C",[26],14.7%
same,"viability, T/C",[27],14.6%
same,"viability, T/C",[28],11%
same,"viability, T/C",[29],10.2%
same,"viability, T/C",[30],7.94%
same,"viability, T/C",[31],32%
same,"viability, T/C",[32],33.6%
same,"viability, T/C",[33],25.1%
same,"viability, T/C",[34],19.4%
same,"viability, T/C",[35],17%
same,"viability, T/C",[36],12.5%
